{"source": "patent US20200289667A1", "about": "“Targeting Macrophages to Modulate Electrical Conduction in the Heart” (The General Hospital Corporation, priority 2016, published 2020)", "type_in_all_cases": "in vivo, mouse", "key": {"[1]": {"test_system": "AV block", "test": "Surface ECG of Cd11b^DTR mice with AV block after intravenous drug administration", "settings": "Cd11b^DTR mice with second and third degree AV block; intravenous (atropine 1 mg/kg, epinephrine 2 mg/kg, isoproterenol 20 mg/kg)", "description": "(§1) Mice were anesthetized as described above and surface ECG was recorded using subcutaneous electrodes connected to the Animal Bio amplifier and PowerLab station (AD Instruments). The ECG channel was filtered between 0.3 and 1000 Hz and analyzed using LabChart Pro software. Atropine (1 mg/kg), epinephrine (2 mg/kg) or isoproterenol (20 mg/kg) were administered intravenously, and changes were examined before and after injection."}, "[2]": {"test_system": "AV node conduction", "test": "AV node conduction by ECG telemetry, surface ECG and EP study after macrophage depletion", "description": "(§2) Mice were put into parabiosis using either C57BL/6 and Cx3cr1^GFP/+ or Cd11b^DTR and Cx3cr1^GFP/+ mice as described previously (12). Tamoxifen was given as a solution in corn oil (Sigma) to Cx3cr1^wt/CreER ChR2^fl/fl or Cx3cr1^wt/CreER Cx43^fl/fl mice by intraperitoneal injection. Animals received 5 doses of 2 mg of tamoxifen with a separation of 24 hours between doses. Cx3cr1^wt/CreER ChR2^wt/fl and Cx3cr1^wt/CreER Cx43^fl/fl mice were analyzed 2 and 7 days post-tamoxifen treatment, respectively. Macrophage depletion was achieved by a single intraperitoneal injection of diphtheria toxin (DT, 25 ng/g body weight) in Cd11b^DTR mice (12). C57BL/6 mice injected with DT were used as controls. Clodronate liposomes were kindly provided by Dr. Kory J. Lavine and contained 18 mg of clodronate per mL of liposomes. Depletion studies were performed by intraperitoneal injection of 100 μL/30 g mouse (13).\nEP studies were performed under general anaesthesia induced by administering 5% isoflurane driven by an oxygen source into an induction chamber. Anaesthesia was subsequently maintained with 1-2% isoflurane in 95% O2. For EP study, an octapolar catheter (EPR-800) was inserted into the right jugular vein and positioned in the right atrium and ventricle. Programmed electrical stimulation was performed using a standard protocol with 120 ms and 100 ms drive trains and single extrastimuli to measure function of the AV node and the conduction properties of atrial and ventricular tissue. The Wenckebach cycle length was measured by progressively faster atrial pacing rates. Retrograde (VA) conduction cycle length was measured by progressively slower ventricular pacing rates. Sinus node function was determined by measuring the sinus node recovery time (SNRT) following 30 seconds of pacing at three cycle lengths (120, 100 and 80 ms). SNRT was divided by the basic cycle length to adjust for the intrinsic heart rate.\nContinuous ambulatory ECG telemetry was performed by implanting an ETA-F10 transmitter during general anaesthesia with isoflurane. The transmitter was implanted in the abdomen and the leads were tunneled subcutaneously to the upper right and lower left chest resulting in a lead II position. Telemetry data was recorded continuously via a receiver placed under the mouse cage. Data analysis was performed using LabChart Pro software.\nas §1"}, "[3]": {"test_system": "AV node macrophages", "test": "Flow cytometric quantification of AV node macrophages after depletion", "description": "as §2\nPeripheral blood for flow cytometric analysis was collected by retro-orbital bleeding using heparinized capillary tubes (BD Diagnostics) and red blood cells were lysed with 1× red blood cell lysis buffer (BioLegend). To determine electrolyte levels, blood was collected by cardiac puncture and electrolytes were measured on serum with EasyLyte PLUS analyzer (Medica). For organ harvest, mice were perfused through the LV with 10 mL of ice-cold PBS. […]"}}, "data": [{"compound": "CN1[C@@H]2CC[C@H]1C[C@@H](OC(=O)C(CO)c1ccccc1)C2", "note": "(stereo partly drawn) [atropine]", "values": [{"measurement": "attenuation of AV block", "setting": "[1]", "value": "did not attenuate"}]}, {"compound": "CNC[C@H](O)c1ccc(O)c(O)c1", "note": "[epinephrine]", "values": [{"measurement": "attenuation of AV block", "setting": "[1]", "value": "did not attenuate"}]}, {"compound": "CC(C)NCC(O)c1ccc(O)c(O)c1", "note": "(stereo not drawn) [isoproterenol]", "values": [{"measurement": "attenuation of AV block", "setting": "[1]", "value": "did not attenuate"}]}, {"compound": "diphtheria toxin [DT]", "values": [{"measurement": "induction of AV block", "setting": "[2]; C57BL/6 control mice, surface ECG", "value": "did not induce AV block"}, {"measurement": "progression of AV block", "setting": "[2]; Cd11b^DTR mice, ECG telemetry, after DT injection", "value": "progressively evolved into second and third degree AV block"}, {"measurement": "onset of first degree AV block (all mice)", "setting": "[2]; Cd11b^DTR mice, ECG telemetry, single dose 25 ng/g", "value": "one"}, {"measurement": "induction of AV block", "setting": "[2]; Cx3cr1^GFP/+ mice joined in parabiosis with Cd11b^DTR mice, surface ECG three days after DT", "value": "did not induce AV block"}, {"measurement": "number of AV node macrophages", "setting": "[3]; C57BL/6 control mice, three days after DT injection", "value": "did not alter"}, {"measurement": "time of maximum depletion of AV node macrophages", "setting": "[3]; Cd11b^DTR mice, single intraperitoneal dose of 25 ng/g body weight", "value": "three"}]}]}
